Counter-ions that a name gives are not always drawn.
System: HCT116
Conditions: 72 h
Outline: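 Four-parameter Hill fits gave IC50 and maximal efficacy. The data were CellTiter-Glo luminescence readings in HCT116 cells, normalized so that vehicle was 0% and positive control was -100%, with pattern correction afterwards.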

| Compound | IC50 cell viability (ICRF193 0 nM) [µM] | IC50 cell viability (ICRF193 200 nM) [µM] |
| --- | --- | --- |
| CC(C)(C)CC(C)(C)c1cc(Cc2cc(C(C)(C)CC(C)(C)C)cc(-n3nc4ccccc4n3)c2O)c(O)c(-n2nc3ccccc3n2)c1 | > 45.8 | > 45.8 |
| CCOc1cc([C@@H](CS(C)(=O)=O)N2C(=O)c3cccc(NC(C)=O)c3C2=O)ccc1OC | > 45.8 | > 45.8 |
| CCOc1ccc(Cc2cc([C@]34OC[C@](CO)(O3)[C@@H](O)[C@H](O)[C@H]4O)ccc2Cl)cc1 | > 45.8 | > 45.8 |
| CNC(C)C(O)c1ccc(O)cc1 (stereo not given) | > 45.8 | > 45.8 |
| CSCCNc1nc(SCCC(F)(F)F)nc2c1ncn2[C@@H]1O[C@H](COP(=O)(O)OP(=O)(O)C(Cl)(Cl)P(=O)(O)O)[C@@H](O)[C@H]1O | > 45.8 | > 45.8 |
| C[C@H]1C[C@@H]2[C@H]([C@@H](O)C[C@@]3(C)[C@H]2CC[C@]3(O)C(=O)COC(=O)CCC(=O)O)[C@@]2(C)C=CC(=O)C=C12 | > 45.8 | > 45.8 |
| Cl/C=C\C[N+]12CN3CN(CN(C3)C1)C2 | > 45.8 | > 45.8 |
| OC[C@H]1O[C@@H](c2ccc(Cl)c(Cc3ccc(O[C@H]4CCOC4)cc3)c2)[C@H](O)[C@@H](O)[C@@H]1O | > 45.8 | > 45.8 |
| OCc1cc([C@@H](O)CNCCCCCCOCCOCc2c(Cl)cccc2Cl)ccc1O | > 45.8 | > 45.8 |
| CC#CCC(C)[C@H](O)/C=C/[C@@H]1[C@H]2c3cccc(CCCC(=O)O)c3O[C@H]2C[C@H]1O (mixture of isomers) [Beraprost sodium] | > 45.8 | > 45.8 |
| OC[C@H]1O[C@@H](O[C@@H]2[C@@H](CO)OC(O)(CO)[C@H]2O)[C@H](O)[C@@H](O)[C@H]1O (mixture of isomers) [Lactulose] | > 45.8 | > 45.8 |
| CCCCC(C)(O)C/C=C/[C@H]1[C@H](O)CC(=O)[C@@H]1CCCCCCC(=O)OC (mixture of isomers) [Misoprostol] | > 45.8 | > 45.8 |
| CCCCCCCCCCCCCC(=O)OCC(COP(=O)([O-])OCC[N+](C)(C)C)OC(=O)CCCCCCCCCCCCC (racemic) [1,2-Ditetradecanoyl-rac-glycerol-3-phosphocholine] | > 45.8 | > 45.8 |
| CCCCCCCCCCCCCCCCCC(=O)OCC(O)CO (racemic) [1-Stearoyl-rac-glycerol] | > 45.8 | > 45.8 |
| C[N+](C)(C)CC(O)CC(=O)[O-] (racemic) [DL-Carnitine HCl] | > 45.8 | > 45.8 |
| NC(CS)C(=O)O (racemic) [DL-Cysteine] | > 45.8 | > 45.8 |
| CC[C@H](C)[C@H](N)C(=O)O (racemic) [DL-Isoleucine] | > 45.8 | > 45.8 |
| Cc1c(C)c2c(c(C)c1OC(=O)c1cccnc1)CC[C@@](C)(CCC[C@H](C)CCC[C@H](C)CCCC(C)C)O2 (racemic) [DL-alpha Tocopheryl nicotinate] | > 45.8 | > 45.8 |
| CC(=O)Oc1c(C)c(C)c2c(c1C)CCC(C)(CCCC(C)CCCC(C)CCCC(C)C)O2 (racemic) [dl-alpha-Tocopheryl acetate] | > 45.8 | > 45.8 |
| C=C(C)CNc1ccc(C(C)C(=O)O)cc1 (racemic) [rac Alminoprofen] | > 45.8 | > 45.8 |
| C[N+]1([O-])[C@@H]2CC(OC(=O)[C@H](CO)c3ccccc3)C[C@H]1[C@@H]1O[C@@H]12 (single isomer, unassigned; (-)) [(-)-Scopolamine N-oxide] | > 45.8 | > 45.8 |
| CC(C1=C(CCN(C)C)Cc2ccccc21)c1ccccn1 (stereo in doubt) [(S)-(+)-Dimethindene maleate] | > 45.8 | > 45.8 |

| Compound | IC50 cell viability (ICRF193 0 nM) [µM] | IC50 cell viability (ICRF193 200 nM) [µM] |
| --- | --- | --- |
| CC(=C(CCO)SSCC1CCCO1)N(C=O)Cc1cnc(C)nc1N (stereo in doubt) [Fursultiamine Hydrochloride] | > 45.8 | > 45.8 |
| Cc1nnc(C(C)C)n1C1C[C@H]2CC[C@@H](C1)N2CC[C@H](NC(=O)C1CCC(F)(F)CC1)c1ccccc1 (stereo in doubt) [Maraviroc] | > 45.8 | > 45.8 |
| CC(C)(O)C(Cl)(Cl)Cl [1,1,1-Trichloro-2-methyl-2-propanol] | > 45.8 | > 45.8 |
| O=Cc1ccccc1C=O [1,2-Benzenedicarboxaldehyde] | > 45.8 | > 45.8 |
| Oc1cc(O)cc(O)c1 [1,3,5-Trihydroxybenzene dihydrate] | > 45.8 | > 45.8 |
| COc1cc(OC)cc(OC)c1 [1,3,5-Trimethoxybenzene] | > 45.8 | > 45.8 |
| O=C(O)c1ccc(OCCCOc2ccc(C(=O)O)cc2)cc1 [1,3-Bis(4-carboxyphenoxy)propane] | > 45.8 | > 45.8 |
| NC(=Nc1ccccc1)Nc1ccccc1 [1,3-Diphenylguanidine] | > 45.8 | > 45.8 |
| O=S(=O)(O)CCCS(=O)(=O)O [1,3-Propanedisulfonic acid disodium salt] | > 45.8 | > 45.8 |
| CC12CCC(CC1)C(C)(C)O2 [1,8-Cineol] | > 45.8 | > 45.8 |
| FC(F)(F)C(F)(F)C(F)(F)C(F)(F)C(F)(F)C(F)(F)C(F)(F)C(F)(F)Br [1-Bromoheptadecafluorooctane] | > 45.8 | > 45.8 |
| CCN1CCCC1=O [1-Ethyl-2-pyrrolidinone] | > 45.8 | > 45.8 |
| CCCCCCCCCCCCCCCCO [1-Hexadecanol] | > 45.8 | > 45.8 |
| O=C(O)Cc1cccc2ccccc12 [1-Naphthaleneacetic acid] | > 45.8 | > 45.8 |
| CCCCCCCCCCCCCCCCCCCCCCCCCCCCO [1-Octacosanol] | > 45.8 | > 45.8 |
| CCCCCCCCCCCCCCCCCCO [1-Octadecanol] | > 45.8 | > 45.8 |
| CC(O)COc1ccccc1 (stereo not given) [1-Phenoxy-2-propanol] | > 45.8 | > 45.8 |
| CCC(O)c1ccccc1 (stereo not given) [1-Phenyl-1-propanol] | > 45.8 | > 45.8 |
| Nc1ccn([C@H]2CC[C@@H](CO)O2)c(=O)n1 [2',3'-Dideoxycytidine] | > 45.8 | > 45.8 |
| O=c1[nH]cnc2c1ncn2[C@H]1CC[C@@H](CO)O1 [2',3'-Dideoxyinosine] | > 45.8 | > 45.8 |
| COc1ccc(C(=O)c2ccccc2O)c(O)c1 [2,2'-Dihydroxy-4-methoxybenzophenone] | > 45.8 | > 45.8 |
| c1ccc2sc(SSc3nc4ccccc4s3)nc2c1 [2,2'-Dithiobisbenzothiazole] | > 45.8 | > 45.8 |

| Compound | IC50 cell viability (ICRF193 0 nM) [µM] | IC50 cell viability (ICRF193 200 nM) [µM] |
| --- | --- | --- |
| CCCCCCCC(=O)OCC(O)CO (stereo not given) [2,3-Dihydroxypropyl octanoate] | > 45.8 | > 45.8 |
| OCc1ccc(Cl)cc1Cl [2,4-Dichlorobenzyl alcohol] | > 45.8 | > 45.8 |
| O=[N+]([O-])c1cc(I)c(O)c(I)c1 [2,6-DIIODO-4-NITROPHENOL] | > 45.8 | > 45.8 |
| CCCCCCCCCCCCOCCO [2-(Dodecyloxy)ethanol] | > 45.8 | > 45.8 |
| O=[N+]([O-])C(Br)(CO)CO [2-Bromo-2-nitro-1,3-propanediol] | > 45.8 | > 45.8 |
| NC(=O)c1ccc([N+](=O)[O-])cc1Cl [2-Chloro-4-nitrobenzamide] | > 45.8 | > 45.8 |
| CCOc1ccccc1C(N)=O [2-Ethoxybenzamide] | > 45.8 | > 45.8 |
| CCCC(O)C(CC)CO (stereo not given) [2-Ethyl-1,3-hexanediol] | > 45.8 | > 45.8 |
| CCCCC(CC)COC(=O)c1ccc(N(C)C)cc1 (stereo not given) [2-Ethylhexyl 4-(dimethylamino)benzoate] | > 45.8 | > 45.8 |
| CCCCC(CC)COC(=O)c1ccccc1O (stereo not given) [2-Ethylhexyl salicylate] | > 45.8 | > 45.8 |
| COc1ccc(C(=O)c2ccccc2)c(O)c1 [2-Hydroxy-4-methoxybenzophenone] | > 45.8 | > 45.8 |
| O=C(Nc1ccc(O)cc1)c1ccccc1O [2-Hydroxy-N-(4-hydroxyphenyl)-benzamide] | > 45.8 | > 45.8 |
| CCCCCCCCCCCCCCCCCC(=O)OCCO [2-Hydroxyethyl octadecanoate] | > 45.8 | > 45.8 |
| O=C(O)CNC(=O)c1ccccc1I [2-Iodohippuric acid] | > 45.8 | > 45.8 |
| Sc1nc2ccccc2s1 [2-Mercaptobenzothiazole] | > 45.8 | > 45.8 |
| CCCCCCCCCCC(CO)CCCCCCCC (stereo not given) [2-Octyl-1-dodecanol] | > 45.8 | > 45.8 |
| OCCOc1ccccc1 [2-Phenoxyethanol] | > 45.8 | > 45.8 |
| OCCc1ccccc1 [2-Phenylethanol] | > 45.8 | > 45.8 |
| O=C1CC[C@@H](C(=O)O)N1 [2-Pyrrolidone-5-carboxylic acid] | > 45.8 | > 45.8 |
| O=C(O)c1ccccc1S [2-Thiosalicylic acid] | > 45.8 | > 45.8 |
| Cc1cc(Nc2ccccc2C(=O)O)ccc1Cl [2-[(4-Chloro-3-methylphenyl)amino]benzoic acid] | > 45.8 | > 45.8 |

— the supplement of paper PMC12137928
